These results are taken from patent US12435091B2, “RNA-binding protein multimerization inhibitors and methods of use thereof” (THE UAB RESEARCH FOUNDATION, priority 2020, dated 2025).

One series deals with U251 cell line. The experiment in a line: attached cell colony formation assay. The format is cell-based. To be noted: 3 uM. The procedure:
(§1) The soft agar colony formation assay was performed by using 0.9% and 0.45% agarose for the bottom and the top layers, respectively; cells were incorporated in the top layer. Seaplaque low-melting temperature agarose was purchased from Lonza (Rockland, ME). Five hundred cells per well were utilized in both, the soft agar and the attached colony formation assays, which were performed in 6 well plates; cells were treated with vehicle as the control or with the desired drugs, which were administered twice per week for three weeks. The Crystal violet solution (0.1%) was utilized for colony staining in both assays. The colonies were counted after three weeks of treatment; the plate images were obtained by using Amersham Imager-600 reader (Piscataway, NJ).
(§2) Graphs in FIG. 8D illustrate the average numbers of colonies formed by established U251 and PDGx XD456 cell lines in the attached cell colony formation assay and in the soft agar colony formation assay, which represents anchorage independent cell growth.

The test system of the next series is XD456 cell line. Nature of the series: attached cell colony formation assay. The format is cell-based. To be noted: 3 uM. The procedure: as §1, §2
The nature of another series: Plasma protein binding. The format is in vitro ADME. The source says:
Plasma protein binding for Compound 19 was 96.44%.

In series [1] the test system is Bcl2 and Mcl1 mRNAs in U251 cell line. The experiment in a line: Taqman quantification of Bcl2/18S and Mcl1/18S mRNA. To be noted: U251, 10 uM for 24 hours. The format is cell-based. The procedure:
(§3) The HuR-mRNA co-immunoprecipitation (IP) was performed by utilizing RiboCluster Profiler RIP-assay Kit (MBL International). The quantifications of Bcl2, and 18S transcripts were performed using Taqman technique with the following gene-specific probes: Hs00153350_m1, Hs03003631_g1, and Hs00766187_m1 (ThermoFisher Scientific) for Bcl2, 18S, and Mcl1, respectively.
(§4) mRNA isolation and purification from adherent cells were performed using RNeasy Mini Kit and QIAshredder columns (Qiagen, Valencia, CA).
(§5) HuR protein plays a significant role in the stabilization of the mRNAs of the anti-apoptotic Bcl2-family, which contributes to the protection of genetically unstable glioma cells from apoptosis. Therefore, the Bcl2 family was evaluated in the established and PDGx cell lines after cell treatment with SRI-41664 or SRI-42127 compounds. […] The protein levels of Bcl2 and Mcl1 were evaluated in the established U251 and PDGx XD456 glioma cell lines in the control (vehicle treatment) and after treatment with SRI-41664 or SRI-42127 compounds for 48 hours.
(In general: Quantitative PCR measures a nucleic acid by following its amplification.)

Series [2] relates to Bcl2 and Mcl1 mRNAs in LN229 cell line. Described as above. The format is cell-based. To be noted: LN229, 10 uM for 24 hours. The procedure: as §3, §4, §5
In series [3] the test system is Bcl2 and Mcl1 mRNAs in PDGx XD456 cell line. Described as above. The format is cell-based. To be noted: XD456, 10 uM for 24 hours. The procedure: as §3, §4, §5
Series [4] relates to Bcl2 and Mcl1 mRNAs in U87 cell line. Described as above. The format is cell-based. To be noted: U87, 10 uM for 24 hours. On the procedure:
as §3, §4, §5

Series [5] relates to HuR cytoplasmic translocation in primary microglial cells. The experiment in a line: Imagestream single cell flow cytometry of HuR location in LPS-activated microglia. The format is cell-based, mouse. To be noted: 1 μM. On the procedure:
Cultured primary microglial cells isolated from neonatal mouse brain were treated with LPS to achieve activation. Cells were then treated with varying doses of SRI-42127 or vehicle. Imagestream single cell flow cytometry was used to track the location of HuR within microglial cells as depicted in FIG. 11, Panel A. DAPI was used as a flow marker for nuclear localization. For each cell, the percentage of HuR immunofluorescence that colocalized with the nuclear compartment versus the cytoplasmic compartment was quantified.
In the unstimulated state (DMSO), the characteristic nuclear predominance of HuR was observed as reflected by a low percentage of cells with high HuR in the cytoplasm. With LPS stimulation, there was an ˜8-fold increase in the percent of cells with high levels of HuR in the cytoplasm (˜60%). With SRI-42127 treatment, there was a significant dose-dependent decrease in cells with high cytoplasmic HuR. At 1 μM of SRI-42127, the percent of cells with high HuR was similar to resting (unactivated) microglia (˜10%).

Another series concerns primary human astrocytes. The experiment in a line: cleaved caspase-3 immunostaining in primary human astrocytes. The format is cell-based. To be noted: up to 15 uM. The procedure:
At the end of experiments, neurons and astrocytes were rinsed briefly with PBS and fixed by using 4% paraformaldehyde, pH 7.4 for 13 minutes at room temperature. Triton X-100 (0.3%) in PBST buffer (i.e., PBS with 0.1% Tween 20) was used for cell permeabilization for 30 minutes at room temperature. Cells were rinsed with PBST buffer 3 times for 10 minutes after fixation. Blocking buffer (3% BSA, 22.52 mg/ml glycine in PBST) was used to block unspecific antibody binding for 30 minutes at room temperature. Primary cleaved caspase 3 antibody (Cell Signaling Technology; Danvers, MA) at 1:200 dilution in PBST buffer with 1% BSA was utilized overnight at 4° C. for cleaved caspase 3 staining. The next day, cells were rinsed four times for 10 minutes with PBST buffer and then were incubated with secondary antibody (Alexa Fluor 594, goat anti-rabbit IgG, Invitrogen (Carlsbad, CA), 1:2000/5000 dilution) in PBST buffer with 1% BSA for 1 hour at room temperature in the dark. Next, cells were rinsed with PBST buffer 4 times for 10 minutes in the dark. Cell nucleus were stained with DAPI (4′,6-diamidino-2-phenylindole). Cell images were obtained with EVOS Fl (Life Technologies; Eugene, OR) imaging system.
The cellular metabolism declined by about 44% after treatment with SRI-42127, 25 uM for 48 hours as shown by FIG. 5E. […]

A short description of another series: in vitro. To be noted: human, liver microsomes. (Liver microsomes are vesicles of endoplasmic reticulum, rich in cytochrome P450 enzymes.)
Series [6] relates to secreted inflammatory factors of microglia. The experiment in a line: ELISA of secreted factors in culture medium of LPS-activated microglia. The format is cell-based, mouse. On the procedure: Major chemokines CXCL1, CXCL2 and CCL3 were suppressed by more than 2-fold. There was a mixed effect on markers of M2-like markers, with TGF-β1 and YM1 increasing and IL-10 decreasing. As these inflammatory factors were secreted, they were quantified by ELISA in culture medium. The greatest effect was with IL-6 which was suppressed at a lower dose of SRI-42127 (1.7-fold at 0.1 μM) and nearly 10-fold at 1.0 μM. IL-1β and TNF-α were suppressed by 5-fold at 1.0 μM.
(In an ELISA, binding on a coated surface is turned into a signal by an enzyme label.)

A short description of another series: brain tissue binding. The format is in vitro ADME.

Each structure is given as a SMILES string.

Experimental for in vitro: Selected compounds were assessed for their aqueous solubility, Log D and mouse and human liver microsomal stability.

The fraction unbound is free concentration divided by total concentration. A higher fraction unbound goes with weak binding. One may read the half-life as the time in which the quantity being followed falls by half. Consider `CN(c1ccc2ncc(-c3ccc4cn[nH]c4c3)n2n1)C1CCOCC1` [Compound 19], for which the number of colonies is 49+28 in the series on U251 cell line and 34+12 in the series on XD456 cell line. The unbound share (fraction unbound) in the series “Plasma protein binding” was 0.0356. For the same molecule, the “decrease of Bcl2/18S mRNA ratio” value in series [1] stood at 96±2%; in series [2], 95±2%; in [3], 96±2%; in series [4], 95±2%. The “decrease of Mcl1/18S mRNA ratio” value is recorded as 95±3% in series [1], 87±8% in series [2], 90±9% in [3] and 86±7% in [4]. In addition, the “percent of cells with high cytoplasmic HuR” value in [5] is recorded as approximately 10%. In addition, the “cleaved caspase-3 activation” value in the series with primary human astrocytes is on record as “significant alterations in cleaved caspase-3 activation were not observed”. In addition, the half-life in the series “in vitro” is 8.6 min. Besides, the results for the “suppression of secreted IL-6” value in [6] (0.1 μM) and in series [6] (1.0 μM) were 1.7 fold and approximately 10 fold, respectively. In series [6] (1.0 μM), the “suppression of secreted IL-1β” value came out at 5 fold. In series [6] (1.0 μM), the “suppression of secreted TNF-α” value is reported as 5 fold. The brain tissue binding in the series “brain tissue binding” was 99.13%. Also, the recovery in “brain tissue binding” (brain tissue, relatively low due to instability or high nonspecific binding) came to 69.6%.
